# Legend:
# HL-60(TB) = assay: NCI-60 five-dose assay; type: cell-based, human; conditions: HL-60(TB), Leukemia
# PC-3 = assay: NCI-60 five-dose assay; type: cell-based, human; conditions: PC-3, Prostate Cancer
# SN12C = assay: NCI-60 five-dose assay; type: cell-based, human; conditions: SN12C, Renal Cancer
# HCT-116 = assay: NCI-60 five-dose assay; type: cell-based, human; conditions: HCT-116, Colon Cancer
# NCI-H23 = assay: NCI-60 five-dose assay; type: cell-based, human; conditions: NCI-H23, Non-Small Cell Lung Cancer
# KM12 = assay: NCI-60 five-dose assay; type: cell-based, human; conditions: KM12, Colon Cancer
# A498 = assay: NCI-60 five-dose assay; type: cell-based, human; conditions: A498, Renal Cancer
# OVCAR-4 = assay: NCI-60 five-dose assay; type: cell-based, human; conditions: OVCAR-4, Ovarian Cancer
# HCT-15 = assay: NCI-60 five-dose assay; type: cell-based, human; conditions: HCT-15, Colon Cancer
# SK-OV-3 = assay: NCI-60 five-dose assay; type: cell-based, human; conditions: SK-OV-3, Ovarian Cancer
# A549/ATCC = assay: NCI-60 five-dose assay; type: cell-based, human; conditions: A549/ATCC, Non-Small Cell Lung Cancer
# [1] = system: Non-Small Cell Lung Cancer subpanel; assay: NCI-60 five-dose assay, subpanel; type: cell-based, human; conditions: Non-Small Cell Lung Cancer
# SF-295 = assay: NCI-60 five-dose assay; type: cell-based, human; conditions: SF-295, CNS Cancer
# SK-MEL-5 = assay: NCI-60 five-dose assay; type: cell-based, human; conditions: SK-MEL-5, Melanoma
# K-562 = assay: NCI-60 five-dose assay; type: cell-based, human; conditions: K-562, Leukemia
# RPMI-8226 = assay: NCI-60 five-dose assay; type: cell-based, human; conditions: RPMI-8226, Leukemia
# Melanoma subpanel = assay: NCI-60 five-dose assay, subpanel; type: cell-based, human; conditions: Melanoma
# UO-31 = assay: NCI-60 five-dose assay; type: cell-based, human; conditions: UO-31, Renal Cancer
# HCC-2998 = assay: NCI-60 five-dose assay; type: cell-based, human; conditions: HCC-2998, Colon Cancer
# Ovarian Cancer subpanel = assay: NCI-60 five-dose assay, subpanel; type: cell-based, human; conditions: Ovarian Cancer
# Renal Cancer subpanel = assay: NCI-60 five-dose assay, subpanel; type: cell-based, human; conditions: Renal Cancer
# BRAF^V600E = assay: biochemical
# MDA-MB-231 = assay: NCI-60 five-dose assay; type: cell-based, human; conditions: MDA-MB-231, Breast Cancer
# OVCAR-5 = assay: NCI-60 five-dose assay; type: cell-based, human; conditions: OVCAR-5, Ovarian Cancer
# MCF7 = assay: NCI-60 five-dose assay; type: cell-based, human; conditions: MCF7, Breast Cancer
# SF-268 = assay: NCI-60 five-dose assay; type: cell-based, human; conditions: SF-268, CNS Cancer
# [2] = Homo sapiens, read-out: GI50 Conc. per Cell Line
# [3] = Homo sapiens, read-out: LC50 (the source's name)
# [4] = Homo sapiens, average sensitivity of all subpanel cell lines, read-out: GI50 Subpanel MID b
# Chain of BRAF^V600E (P28028 whole entry V585E): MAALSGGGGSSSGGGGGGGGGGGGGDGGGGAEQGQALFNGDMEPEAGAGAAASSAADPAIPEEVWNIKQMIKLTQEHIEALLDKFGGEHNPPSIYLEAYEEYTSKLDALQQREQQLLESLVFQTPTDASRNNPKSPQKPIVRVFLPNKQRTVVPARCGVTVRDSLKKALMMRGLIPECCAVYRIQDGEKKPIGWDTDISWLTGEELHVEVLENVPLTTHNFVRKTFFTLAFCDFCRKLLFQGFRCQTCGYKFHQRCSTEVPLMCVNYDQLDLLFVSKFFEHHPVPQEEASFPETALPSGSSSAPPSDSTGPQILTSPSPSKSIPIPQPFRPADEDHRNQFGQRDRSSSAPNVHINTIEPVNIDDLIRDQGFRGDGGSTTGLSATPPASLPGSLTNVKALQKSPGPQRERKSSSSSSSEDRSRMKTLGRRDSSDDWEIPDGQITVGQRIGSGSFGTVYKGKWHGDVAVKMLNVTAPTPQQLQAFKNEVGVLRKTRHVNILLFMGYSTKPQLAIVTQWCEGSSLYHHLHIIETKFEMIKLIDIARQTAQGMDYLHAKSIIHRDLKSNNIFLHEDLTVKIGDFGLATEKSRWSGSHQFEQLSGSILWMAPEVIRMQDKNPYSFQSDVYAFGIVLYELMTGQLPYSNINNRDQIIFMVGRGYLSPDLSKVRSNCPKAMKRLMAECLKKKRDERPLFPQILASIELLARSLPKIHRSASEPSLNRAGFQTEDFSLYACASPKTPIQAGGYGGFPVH
smiles,measurement,setting,value
"COc1ccc(C=NNC(=O)c2ccc3[nH]c(-c4ccc(Cl)cc4)nc3c2)cc1 [Compound 4g, N′-(4-Methoxybenzylidene)-2-(4-chlorophenyl)-1H-benzimidazole-5-carbohydrazide]",TGI,HL-60(TB),>100 µM
same,GI50,HL-60(TB); [2],1.3 µM
same,CC50,HL-60(TB); [3],> 100 µM
same,LC50,PC-3; Homo sapiens,8.55 µM
same,GI50,PC-3; [2],1.65 µM
same,TGI,PC-3,3.76 µM
same,GI50,SN12C; [2],2.46 µM
same,CC50,SN12C; [3],33.9 µM
same,TGI,SN12C,6.79 µM
same,TGI,HCT-116,5.12 µM
same,GI50,HCT-116; [2],2.14 µM
same,CC50,HCT-116; [3],18.9 µM
same,GI50,NCI-H23; [2],2.74 µM
same,CC50,NCI-H23; [3],75.9 µM
same,TGI,NCI-H23,11.20 µM
same,GI50,KM12; [2],3.03 µM
same,CC50,KM12; [3],> 100 µM
same,TGI,KM12,9.58 µM
same,TGI,A498,9.87 µM
same,GI50,A498; [2],2.45 µM
same,CC50,A498; [3],54.6 µM
same,GI50,OVCAR-4; [2],1.79 µM
same,CC50,OVCAR-4; [3],6.33 µM
same,TGI,OVCAR-4,3.36 µM
same,TGI,HCT-15,12.80 µM
same,GI50,HCT-15; [2],3.24 µM
same,CC50,HCT-15; [3],82 µM
same,GI50,SK-OV-3; [2],2.3 µM
same,CC50,SK-OV-3; [3],59.1 µM
same,TGI,SK-OV-3,12.80 µM
same,TGI,A549/ATCC,5.65 µM
same,GI50,A549/ATCC; [2],2.46 µM
same,CC50,A549/ATCC; [3],48.1 µM
same,GI50,[1]; [4],2.71 µM
same,GI50 Selectivity Ratio (MID a/MID b),[1],0.93
same,GI50,SF-295; [2],2.23 µM
same,CC50,SF-295; [3],15 µM
same,TGI,SF-295,5.05 µM
same,GI50,SK-MEL-5; [2],1.89 µM
same,CC50,SK-MEL-5; [3],7.95 µM
same,TGI,SK-MEL-5,3.88 µM
same,GI50,"K-562; Homo sapiens, K562, read-out: GI50 Conc. per Cell Line",2.69 µM
same,CC50,"K-562; Homo sapiens, K562, read-out: LC50 (the source's name)",> 100 µM
same,TGI,K-562,11.20 µM
same,GI50,RPMI-8226; [2],0.997 µM
same,CC50,RPMI-8226; [3],> 100 µM
same,TGI,RPMI-8226,4.77 µM
same,GI50,Melanoma subpanel; [4],2.43 µM
same,GI50 Selectivity Ratio (MID a/MID b),Melanoma subpanel,1.04
same,GI50,UO-31; [2],1.86 µM
same,CC50,UO-31; [3],25.7 µM
same,TGI,UO-31,6.38 µM
same,TGI,HCC-2998,6.44 µM
same,GI50,HCC-2998; [2],2.57 µM
same,CC50,HCC-2998; [3],37.8 µM
same,GI50,Ovarian Cancer subpanel; [4],3.05 µM
same,GI50 Selectivity Ratio (MID a/MID b),Ovarian Cancer subpanel,0.83
same,GI50,Renal Cancer subpanel; [4],2.2 µM
same,GI50 Selectivity Ratio (MID a/MID b),Renal Cancer subpanel,1.14
same,IC50,BRAF^V600E,0.6 ± 0.05 µM
same,GI50,MDA-MB-231; [2],2.42 µM
same,CC50,MDA-MB-231; [3],18.8 µM
same,TGI,MDA-MB-231,5.45 µM
same,GI50,OVCAR-5; [2],2.35 µM
same,CC50,OVCAR-5; [3],33.5 µM
same,TGI,OVCAR-5,6.89 µM
same,GI50,MCF7; [2],1.47 µM
same,CC50,MCF7; [3],10 µM
same,TGI,MCF7,3.84 µM
same,GI50,SF-268; [2],2.09 µM
same,CC50,SF-268; [3],20.8 µM
same,TGI,SF-268,5.10 µM
"COc1cc(/C=N/NC(=O)c2ccc3[nH]c(-c4ccc(Cl)cc4)nc3c2)cc(OC)c1OC [Compound 4h, N′-(3,4,5-Trimethoxybenzylidene)-2-(4-chlorophenyl)-1H-benzimidazole-5 carbohydrazide]",IC50,BRAF^V600E,0.82 ± 0.06 µM

# Source: article PMC10819888, “Benzimidazole-Based Derivatives as Apoptotic Antiproliferative Agents: Design, Synthesis, Docking, and Mechanistic Studies” (Molecules, 2024)
